ChEMBL document CHEMBL1201862, “PubChem BioAssay data set” (2004)
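Exposure lasted 48 hours, with cells grown in 96-well plates and compounds tested at five concentrations. GI50 marks 50% less growth.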 The source made the active and inactive calls. Rule as the data show it: active = GI50 up to about 1.1 µM and inactive = higher.

Tests used:
Assay in all cases: NCI tumour cell line growth inhibition, 48 h
[1] = test system: SR
[2] = test system: SN12C
[3] = test system: MDA-N
[4] = test system: NCI-H23
[5] = test system: OVCAR-3
[6] = test system: PC-3
[7] = test system: M14
[8] = test system: RXF 393
[9] = test system: HT-29
[10] = test system: CCRF-CEM
[11] = test system: DU-145
[12] = test system: CAKI-1
[13] = test system: EKVX
[14] = test system: SF-268
[15] = test system: Malme-3M
[16] = test system: OVCAR-4
[17] = test system: K562
[18] = test system: HOP-62
[19] = test system: SK-MEL-5
[20] = test system: NCI-H226
[21] = test system: U-251
[22] = test system: OVCAR-5
[23] = test system: A498
[24] = test system: MDA-MB-231
[25] = test system: SF-539
[26] = test system: KM12
[27] = test system: UO-31
[28] = test system: SNB-75
[29] = test system: COLO 205
[30] = test system: SNB-19
[31] = test system: SK-OV-3
[32] = test system: LOX IMVI
[33] = test system: OVCAR-8
[34] = test system: MDA-MB-435
[35] = test system: SK-MEL-2
[36] = test system: Hs-578T
[37] = test system: SF-295
[38] = test system: ACHN
[39] = test system: NCI-H460
[40] = test system: HOP-92
[41] = test system: T47D
[42] = test system: SK-MEL-28
[43] = test system: HCT-15
[44] = test system: 786-0
[45] = test system: RPMI-8226
[46] = test system: MOLT-4
[47] = test system: TK-10
[48] = test system: A549
[49] = test system: UACC-62
[50] = test system: HL-60
[51] = test system: SW-620
[52] = test system: NCI/ADR-RES
[53] = test system: HCC 2998
[54] = test system: UACC-257
[55] = test system: NCI-H522
[56] = test system: MCF7
[57] = test system: HCT-116

Cc1ccc(S(=O)(=O)N(CC(O)COc2ccccc2)c2ccc(F)cc2F)cc1 (stereo not drawn)
GI50 [1]: 22.5 µM (inactive) | GI50 [2]: 15.3 µM (inactive) | GI50 [3]: 15.5 µM (inactive) | GI50 [4]: 13.9 µM (inactive) | GI50 [5]: 15.3 µM (inactive) | GI50 [6]: 12.8 µM (inactive) | GI50 [7]: 17.3 µM (inactive) | GI50 [8]: 11.9 µM (inactive) | GI50 [9]: 14.9 µM (inactive) | GI50 [10]: 18.9 µM (inactive) | GI50 [11]: 16.6 µM (inactive) | GI50 [12]: 12.2 µM (inactive) | GI50 [13]: 14.7 µM (inactive) | GI50 [14]: 15.3 µM (inactive) | GI50 [15]: 16 µM (inactive) | GI50 [16]: 11.6 µM (inactive) | GI50 [17]: 34.8 µM (inactive) | GI50 [18]: 15.5 µM (inactive) | GI50 [19]: 14.7 µM (inactive) | GI50 [20]: 18.8 µM (inactive) | GI50 [21]: 14.4 µM (inactive) | GI50 [22]: 18.1 µM (inactive) | GI50 [23]: 15.3 µM (inactive) | GI50 [24]: 17.4 µM (inactive) | GI50 [25]: 16.4 µM (inactive) | GI50 [26]: 20 µM (inactive) | GI50 [27]: 13.9 µM (inactive) | GI50 [28]: 14.8 µM (inactive) | GI50 [29]: 15.3 µM (inactive) | GI50 [30]: 18.1 µM (inactive) | GI50 [31]: 18.7 µM (inactive) | GI50 [32]: 14.2 µM (inactive) | GI50 [33]: 17.3 µM (inactive) | GI50 [34]: 16.1 µM (inactive) | GI50 [35]: 15.5 µM (inactive) | GI50 [36]: 17.3 µM (inactive) | GI50 [37]: 17.2 µM (inactive) | GI50 [38]: 16.5 µM (inactive) | GI50 [39]: 15.8 µM (inactive) | GI50 [40]: 0.122 µM (active) | GI50 [41]: 17.2 µM (inactive) | GI50 [42]: 15.8 µM (inactive) | GI50 [43]: 17.1 µM | GI50 [44]: 16.8 µM (inactive) | GI50 [45]: 13.5 µM (inactive) | GI50 [46]: 22.8 µM (inactive) | GI50 [47]: 21.5 µM (inactive) | GI50 [48]: 12.9 µM (inactive) | GI50 [49]: 13.5 µM (inactive) | GI50 [50]: 15.7 µM (inactive) | GI50 [51]: 16.5 µM (inactive) | GI50 [52]: 15.9 µM (inactive) | GI50 [53]: 14.1 µM (inactive) | GI50 [54]: 17.9 µM (inactive)

CC1(CO)COC(C)(C)OC1
GI50 [1]: > 100 µM (inactive) | GI50 [2]: > 100 µM (inactive) | GI50 [3]: > 100 µM (inactive) | GI50 [4]: > 100 µM (inactive) | GI50 [5]: > 100 µM (inactive) | GI50 [6]: > 100 µM (inactive) | GI50 [8]: > 100 µM (inactive) | GI50 [9]: > 100 µM (inactive) | GI50 [55]: > 100 µM (inactive) | GI50 [10]: > 100 µM (inactive) | GI50 [11]: > 100 µM (inactive) | GI50 [14]: > 100 µM (inactive) | GI50 [16]: > 100 µM (inactive) | GI50 [19]: > 100 µM (inactive) | GI50 [20]: > 100 µM (inactive) | GI50 [21]: > 100 µM (inactive) | GI50 [23]: > 100 µM (inactive) | GI50 [24]: > 100 µM (inactive) | GI50 [26]: > 100 µM (inactive) | GI50 [56]: > 100 µM (inactive) | GI50 [27]: > 100 µM (inactive) | GI50 [28]: > 100 µM (inactive) | GI50 [29]: > 100 µM (inactive) | GI50 [30]: > 100 µM (inactive) | GI50 [31]: > 100 µM (inactive) | GI50 [32]: > 100 µM (inactive) | GI50 [33]: > 100 µM (inactive) | GI50 [34]: > 100 µM (inactive) | GI50 [36]: > 100 µM (inactive) | GI50 [37]: > 100 µM (inactive) | GI50 [38]: > 100 µM (inactive) | GI50 [57]: > 100 µM (inactive) | GI50 [39]: > 100 µM (inactive) | GI50 [40]: > 100 µM (inactive) | GI50 [41]: > 100 µM (inactive) | GI50 [42]: > 100 µM (inactive) | GI50 [43]: > 100 µM | GI50 [46]: > 100 µM (inactive) | GI50 [47]: > 100 µM (inactive) | GI50 [48]: > 100 µM (inactive) | GI50 [51]: > 100 µM (inactive) | GI50 [52]: > 100 µM (inactive) | GI50 [53]: > 100 µM (inactive) | GI50 [54]: > 100 µM (inactive)
